molecular target: T1, p38alpha (Homo sapiens, UniProt Q16539); test: p38α Assay (Caliper LabChip, fluoresceinated peptide); format: biochemical; details: ratio of p38 beta IC50 to p38 alpha IC50; higher numbers indicate greater alpha selectivity
T1 construct: GST (N); made in house; host or cells: E. coli (pGEX vector)
T1 sequence (Q16539 whole entry): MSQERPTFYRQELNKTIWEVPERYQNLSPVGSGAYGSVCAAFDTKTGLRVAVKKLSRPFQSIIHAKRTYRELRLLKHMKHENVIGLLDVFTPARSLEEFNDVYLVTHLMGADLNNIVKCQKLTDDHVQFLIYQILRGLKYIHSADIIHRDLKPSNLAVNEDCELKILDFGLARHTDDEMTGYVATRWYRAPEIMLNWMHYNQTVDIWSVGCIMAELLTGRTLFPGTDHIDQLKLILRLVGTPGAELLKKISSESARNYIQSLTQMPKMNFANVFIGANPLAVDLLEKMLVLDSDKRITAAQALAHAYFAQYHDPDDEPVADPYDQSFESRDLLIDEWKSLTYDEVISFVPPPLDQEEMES

| Compound | beta/alpha (alpha selectivity) |
| --- | --- |
| Cc1ccc(C(=O)NC2CC2)cc1NC(=O)c1ccc(-c2cccc(C(=O)O)c2)s1 [Example 146, 3-(5-(5-(cyclopropylcarbamoyl)-2-methylphenylcarbamoyl)thiophen-2-yl)benzoicacid] | 248 |
| Cc1ccc(C(=O)NC2CC2)cc1NC(=O)c1ccc(-c2cc(F)cc(F)c2)s1 [Example 148, N-(5-(cyclopropylcarbamoyl)-2-methylphenyl)-5-(3,5-difluorophenyl)thiophene-2-carboxamide] | 160 |
| COc1ccc(-c2ccc(C(=O)Nc3cc(C(=O)NC4CC4)ccc3C)s2)c(OC)c1 [Example 153, N-(5-(cyclopropylcarbamoyl)-2-methylphenyl)-5-(2,4-dimethoxyphenyl)thiophene-2-carboxamide] | 228 |
| Cc1ccc(C(=O)NC2CC2)cc1NC(=O)c1ccc(-c2cccc(N)c2)s1 [Example 159, 5-(3-aminophenyl)-N-(5-(cyclopropylcarbamoyl)-2-methylphenyl)thiophene-2-carboxamide] | 200 |
| Cc1ccc(C(=O)NC2CC2)cc1NC(=O)c1ccc(-c2cccc(CO)c2)s1 [Example 160, N-(5-(cyclopropylcarbamoyl)-2-methylphenyl)-5-(3-(hydroxymethyl)phenyl)thiophene-2-carboxamide] | 233 |
| Cc1ccc(C(=O)NC2CC2)cc1NC(=O)c1ccc(-c2ccc(F)nc2)s1 [Example 169, N-(5-(cyclopropylcarbamoyl)-2-methylphenyl)-5-(6-fluoropyridin-3-yl)thiophene-2-carboxamide] | 257 |
| CCNC(=O)c1ccc(-c2ccc(C(=O)Nc3cc(C(=O)NC4CC4)ccc3C)s2)cc1 [Example 181, N-(5-(cyclopropylcarbamoyl)-2-methylphenyl)-5-(4-(ethylcarbamoyl)phenyl)thiophene-2-carboxamide] | 240 |
| Cc1ccc(C(=O)NC2CC2)cc1NC(=O)c1ccc(-c2ccc(C(=O)NC(C)C)cc2)s1 [Example 182, N-(5-(cyclopropylcarbamoyl)-2-methylphenyl)-5-(4-(isopropylcarbamoyl)phenyl)thiophene-2-carboxamide] | 118 |
| Cc1ccc(C(=O)NC2CC2)cc1NC(=O)c1ccc(-c2ccc(C(N)=O)cc2)s1 [Example 185, 5-(4-carbamoylphenyl)-N-(5-(cyclopropylcarbamoyl)-2-methylphenyl)thiophene-2-carboxamide] | 162 |
| Cc1ccc(C(=O)NC2CC2)cc1NC(=O)c1ccc(-c2ccc[n+]([O-])c2)s1 [Example 196, 3-(5-(5-(Cyclopropylcarbamoyl)-2-methylphenylcarbamoyl)thiophen-2-yl)pyridine 1-oxide] | 225 |
| Cc1ccc(C(=O)NC2CC2)cc1NC(=O)c1cc(-c2cccnc2)cs1 [Example 204, N-(5-(Cyclopropylcarbamoyl)-2-methylphenyl)-4-(pyridin-3-yl)thiophene-2-carboxamide] | 379 |
| Cc1ccc(C(=O)NC2CC2)cc1NC(=O)c1ccc(-c2ncccc2C(F)(F)F)s1 [Example 210, N-(5-(Cyclopropylcarbamoyl)-2-methylphenyl)-5-(3-(trifluoromethyl)pyridin-2-yl)thiophene-2-carboxamide] | 433 |
| Cc1ccc(C(=O)NC2CC2)cc1NC(=O)c1c[nH]c2ccccc12 [Example 221, N-(5-(cyclopropylcarbamoyl)-2-methylphenyl)-1H-indole-3-carboxamide] | 540 |
| Cc1ccc(C(=O)NC2CC2)cc1NC(=O)c1ccc2c(C#N)cn(C)c2c1 [Example 223, 3-Cyano-N-(5-(cyclopropylcarbamoyl)-2-methylphenyl)-1-methyl-1H-indole-6-carboxamide] | 423 |
| Cc1ccc(C(=O)NC2CC2)cc1NC(=O)c1ccc2ccn(CCN3CCOCC3)c2c1 [Example 225, N-(5-(Cyclopropylcarbamoyl)-2-methylphenyl)-1-(2-morpholinoethyl)-1H-indole-6-carboxamide] | 448 |
